Assay results from patent publication US8580842B2, “Heteroaryl-substituted 1,3-dihydroindol-2-one derivatives and medicaments containing them” (Abbott GmbH & Co. KG, priority 2003, dated 2013).
Where a name gives a salt, the structure may show the parent alone.

Target: T1, human V1b receptors (Homo sapiens, UniProt P47901)
T1 construct: expressed in transfected cells; host or cells: CHO-K1 (membrane preparation V1b-3H2)
T1 sequence (P47901 1-424): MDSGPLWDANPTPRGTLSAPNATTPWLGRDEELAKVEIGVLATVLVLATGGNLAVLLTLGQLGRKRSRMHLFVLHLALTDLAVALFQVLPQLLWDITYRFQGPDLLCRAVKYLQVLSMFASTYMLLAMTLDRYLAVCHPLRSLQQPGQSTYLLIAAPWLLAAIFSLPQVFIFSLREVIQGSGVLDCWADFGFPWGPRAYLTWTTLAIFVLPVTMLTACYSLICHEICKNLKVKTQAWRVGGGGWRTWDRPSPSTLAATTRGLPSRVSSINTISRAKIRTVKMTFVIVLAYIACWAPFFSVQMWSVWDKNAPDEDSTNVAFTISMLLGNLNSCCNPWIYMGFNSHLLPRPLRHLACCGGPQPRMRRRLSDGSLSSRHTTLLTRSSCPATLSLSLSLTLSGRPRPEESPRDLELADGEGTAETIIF
Assay: Vasopressin V1b receptor binding assay
Conditions: membranes from CHO-K1 cells expressing human V1b receptors, displacement of 1.5 nM 3H-AVP; read-out: Binding affinity for the vasopressin V1b receptor
Description: Vasopressin V1b Receptor Binding Assay
The binding of the compounds of this invention to the vasopressin V1b receptor was determined with the following assay:
Compounds were dissolved in a concentration of 10^−2 M or 10^−3 M in DMSO. Further dilutions were performed with water.
The procedure for the binding assay was based on the method of Tahara et al. (Tahara A et al., Brit. J. Pharmacol. 125, 1463-1470 (1998)). Assays (0.250 ml) consisted of membranes (58 μg protein) from CHO-K1 cells permanently expressing human V1b receptors (preparation V1b-3H2, containing protease inhibitors, Roche complete Mini #1836170), 1.5 nM ^3H-AVP (8-Arg-vasopressin, NET 800) in incubation buffer (total binding) and different concentrations of test compound (displacement). Non-specific binding was defined with 10^−6 M AVP. Assays were performed in triplicate.
Incubation buffer: 50 mM Tris, 10 mM MgCl2, 0.1% BSA adjusted to pH 7.4 with HCl.
After incubation, 60 min at room temperature, bound and free radioligand was separated by filtration under vacuum through Whatman GF/B glass fibre mats using a Skatron cell harvester 7000.
Liquid scintillation counting was performed in beta-counters, Tricarb model 2000 or 2200CA (Packard). Dpm were calculated by a programme with standardisation using a standard quench series.
Evaluation of binding parameters was performed by non-linear regression analysis with SAS. The strategy of this program is similar to the program LIGAND described by Munson and Rodbard (Munson PJ and Rodbard D, Analytical Biochem 107, 220-239 (1980)).

Molecule | Ki
CCOc1ccccc1C1(NC(=O)N2CCN(C3CCN(C)CC3)CC2)C(=O)N(S(=O)(=O)c2sccc2OC)c2ccc(OC)cc21 (centres unmarked) [Example 125, 4-(1-Methyl-piperidin-4-yl)-piperazine-1-carboxylic acid [3-(2-ethoxy-phenyl)-5-methoxy-1-(3-methoxy-thiophene-2-sulfonyl)-2-oxo-2,3-dihydro-1H-indol-3-yl]-amide] | < 50 nM
COc1ccc(S(=O)(=O)N2C(=O)C(c3cccnc3OC)(N3C[C@H](F)C[C@H]3C(=O)N(C)C)c3cc(Cl)ccc32)c(OC)c1 (single isomer, unassigned) [Example 246] | < 50 nM
COc1ccccc1C1(N2C[C@H](O)C[C@H]2C(=O)N(C)C)C(=O)N(S(=O)(=O)c2ncc(Br)cc2C)c2ccc(Cl)cc21 (single isomer, unassigned) [Example 53] | < 50 nM
COc1ccc(C2(N3C[C@H](O)C[C@H]3C(=O)N(C)C)C(=O)N(S(=O)(=O)c3cccs3)c3ccc(Cl)cc32)c(OC)n1 (single isomer, unassigned) [Example 280] | < 50 nM
COc1ccccc1C1(N2C[C@H](O)C[C@H]2C(=O)N(C)C)C(=O)N(S(=O)(=O)c2ccc(C)cn2)c2ccc(Cl)cc21 (single isomer, unassigned) [Example 51] | < 50 nM
COc1ncccc1C1(OC(=O)N2CCN(C3CCN(C)CC3)CC2)C(=O)N(S(=O)(=O)c2ccc(C(F)(F)F)cc2)c2ccc(Cl)cc21 (centres unmarked) [Example 122, 4-(1-Methyl-piperidin-4-yl)-piperazine-1-carboxylic acid 5-chloro-3-(2-methoxy-pyridin-3-yl)-2-oxo-1-(4-trifluoromethyl-benzenesulfonyl)-2,3-dihydro-1H-indol-3-yl ester diacetate] | 50 to 500 nM
COc1ccc(S(=O)(=O)N2C(=O)C(c3cccnc3OC)(N(C)[C@@H](C)C(=O)N(C)C)c3cc(Cl)ccc32)c(OC)c1 (some centres unmarked) [Example 220] | < 50 nM
COc1ccc(S(=O)(=O)N2C(=O)C(c3nccnc3OC)(N3C[C@H](O)C[C@H]3C(=O)N(C)C)c3cc(I)ccc32)c(OC)c1 (single isomer, unassigned) [Example 243] | < 50 nM
COc1ccccc1C1(N2C[C@H](O)C[C@H]2C(=O)N(C)C)C(=O)N(S(=O)(=O)c2ccc(Cl)s2)c2ccc(Cl)cc21 (single isomer, unassigned) [Example 31] | < 50 nM
COc1ccccc1C1(N2C[C@H](O)C[C@H]2C(=O)N(C)C)C(=O)N(S(=O)(=O)c2ccc(N3CCOCC3)nc2)c2ccc(Cl)cc21 (single isomer, unassigned) [Example 56] | < 50 nM
CCOc1ccccc1C1(NC(=O)N2CCN(C3CCN(C)CC3)CC2)C(=O)N(S(=O)(=O)c2cccc3cccnc23)c2ccc(OC)cc21 (centres unmarked) [Example 83, 4-(1-Methyl-piperidin-4-yl)-piperazine-1-carboxylic acid [3-(2-ethoxy-phenyl)-5-methoxy-2-oxo-1-(quinoline-8-sulfonyl)-2,3-dihydro-1H-indol-3-yl]-amide] | < 50 nM
COc1ncc(C2(N3C[C@H](O)C[C@H]3C(=O)N(C)C)C(=O)N(S(=O)(=O)c3ccc(C)cn3)c3ccc(Cl)cc32)c(OC)n1 (single isomer, unassigned) [Example 282] | < 50 nM
CCOc1ccccc1C1(OC(=O)N2CCN(C3CCN(C)CC3)CC2)C(=O)N(S(=O)(=O)c2cccc3cccnc23)c2ccc(OC)cc21 (centres unmarked) [Example 154, 4-(1-Methyl-piperidin-4-yl)-piperazine-1-carboxylic acid 3-(2-ethoxy-phenyl)-5-methoxy-2-oxo-1-(quinoline-8-sulfonyl)-2,3-dihydro-1H-indol-3-yl ester] | < 50 nM
COc1ncccc1C1(N2C[C@H](O)C[C@H]2C(=O)N(C)C)C(=O)N(S(=O)(=O)c2cccc3cccnc23)c2ccc(Cl)cc21 (single isomer, unassigned) [Example 288] | < 50 nM
COc1ccc(S(=O)(=O)N2C(=O)C(c3cccnc3OC)(N3C[C@H](O)C[C@H]3C(=O)N(C)C)c3cc(C#N)ccc32)c(OC)c1 (single isomer, unassigned) [Example 232] | < 50 nM
COc1ncccc1C1(OC(=O)N2CCN(C3CCN(C)CC3)CC2)C(=O)N(S(=O)(=O)c2ccc(OC(F)(F)F)cc2)c2ccc(Cl)cc21 (centres unmarked) [Example 123, 4-(1-Methyl-piperidin-4-yl)-piperazine-1-carboxylic acid 5-chloro-3-(2-methoxy-pyridin-3-yl)-2-oxo-1-(4-trifluoromethoxy-benzenesulfonyl)-2,3-dihydro-1H-indol-3-yl ester diacetate] | 50 to 500 nM
Cc1ccccc1C1(OC(=O)N2CCN(C3CCN(C)CC3)CC2)C(=O)N(S(=O)(=O)c2ccccn2)c2ccc(C#N)cc21 (centres unmarked) [Example 134, 4-(1-Methyl-piperidin-4-yl)-piperazine-1-carboxylic acid 5-cyano-2-oxo-1-(pyridine-2-sulfonyl)-3-o-tolyl-2,3-dihydro-1H-indol-3-yl ester dihydrochloride] | < 50 nM
COc1ccccc1C1(N2C[C@H](O)C[C@H]2C(=O)N(C)C)C(=O)N(S(=O)(=O)c2cccc(C)n2)c2ccc(Cl)cc21 (single isomer, unassigned) [Example 253] | < 50 nM
COc1ccc(S(=O)(=O)N2C(=O)C(c3cccnc3OC)(N3C[C@H](O)C[C@H]3C(=O)N(C)C)c3cc(Cl)ccc32)c(OC)c1 (single isomer, unassigned) [Example 6] | 50 to 500 nM
(2S,4R)-1-[5-Chloro-3-(2,4-dimethoxy-pyrimidin-5-yl)-1-(5-methyl-pyridine-2-sulfonyl)-2-oxo-2,3-dihydro-1H-indol-3-yl]-4-hydroxy-pyrrolidine-2-carboxylic acid dimethylamide [Example 289] | < 50 nM
COc1ccc(S(=O)(=O)N2C(=O)C(c3ccc(OC)nc3OC)(N3C[C@H](O)C[C@H]3C(=O)N(C)C)c3cc(Cl)ccc32)c(OC)c1 (single isomer, unassigned) [Example 238] | < 50 nM
COc1ccc(S(=O)(=O)N2C(=O)C(c3cccnc3OC)(N3C[C@H](O)C[C@H]3C(=O)N(C)C)c3cc(OC)ccc32)c(OC)c1 (single isomer, unassigned) [Example 230, fumarate] | < 50 nM
COc1ccccc1C1(OC(=O)N2CCCCC2)C(=O)N(S(=O)(=O)c2cccc3cccnc23)c2ccc(Cl)cc21 (centres unmarked) [Example 65, Piperidine-1-carboxylic acid 5-chloro-3-(2-methoxy-phenyl)-2-oxo-1-(quinoline-8-sulfonyl)-2,3-dihydro-1H-indol-3-yl ester] | 50 to 500 nM
COc1ncccc1C1(OC(=O)N2CCN(C3CCN(C)CC3)CC2)C(=O)N(S(=O)(=O)c2ccc(C#N)cc2)c2ccc(Cl)cc21 (centres unmarked) [Example 113, 4-(1-Methyl-piperidin-4-yl)-piperazine-1-carboxylic acid 5-chloro-1-(4-cyano-benzenesulfonyl)-3-(2-methoxy-pyridin-3-yl)-2-oxo-2,3-dihydro-1H-indol-3-yl ester diacetate] | < 50 nM
COc1ccccc1C1(N2C[C@H](O)C[C@H]2C(=O)N(C)C)C(=O)N(S(=O)(=O)c2cccc3cccnc23)c2ccc(Cl)cc21 (single isomer, unassigned) [Example 28] | < 50 nM
COc1ccc(S(=O)(=O)N2C(=O)C(c3ncccc3OC)(N3C[C@H](O)C[C@H]3C(=O)N(C)C)c3cc(Cl)ccc32)c(OC)c1 (single isomer, unassigned) [Example 9] | < 50 nM
